Assay results reported in patent publication US20260347351A1, “INHIBITORS OF PDE11A4 AND METHODS OF USING SAME” (UNIVERSITY OF MARYLAND, BALTIMORE, priority 2022, published 2026).
≈ marks a conversion by molar mass, not a printed value. Values belong to the compound of their own block, whether it stands above or below them.

Key:
PDE11A4 = target: T1, PDE11A4 (Homo sapiens, UniProt Q9HCR9); experiment: In vitro PDE11A4 enzyme inhibition assay (Ba(OH)2 precipitation method); type: biochemical; conditions: for IC50: in vitro
T1 construct: purchased BPS Bioscience
Procedure: In vitro enzyme assays are conducted via the Ba(OH)2 precipitation method of Wang et al. using commercially-available recombinant PDEs representing all 11 PDE families. Assays for PDE11A inhibition are carried out with both 200 nM cAMP and 100 nM cGMP. Substrate concentrations for the remaining PDEs are 100 nM cGMP (PDE1C), 1 μM cGMP (PDE2A), 30 nM cGMP (PDE3B), 120 nM cAMP (PDE4D), 500 nM cGMP (PDE5A), […] (PDE6C), 15 nM cAMP (PDE7A), 10 nM cAMP (PDE8A), 70 nM cGMP (PDE9A), and 30 nM cAMP (PDE10A).
These compounds were profiled further using additional commercially available analogs and by in vitro ADME characteristics. The synthesis of these analogs is illustrated in the schemes of FIGS. 24-26. […] In the rightmost column of FIG. 27B, percent (%) values refer to percent inhibition, and non-percent values refer to IC50 values.
In vitro enzyme assays were conducted via the Ba(OH)2 precipitation method of Wang et al. using recombinant human PDE3A, PDE4D3, PDE5A, PDE6C, PDE10A1, and PDE11A4 (BPS Bioscience)). Substrate concentrations used were 15 nM cGMP (PDE3A), 18 nM cAMP (PDE3A) 200 nM cAMP (PDE4D3), 500 nM cGMP (PDE5A), 1.7 μM cGMP (PDE6C), 30 nM cAMP (PDE10A), […] (PDE10A), 100 nM cGMP (PDE11A4) and 240 nM cAMP (PDE11A4). […] Inhibitor concentrations of 4, 13.7, 40, 123, 370, 1110, 3330 and 10,000 nM were used. The values reported are means of at least three independent experiments. Substrate concentrations were ~0.1×KM for each enzyme; thus, IC50 values approximate the Ki values.

mPDE11A4 = mPDE11A4 (Mus musculus, UniProt P0C1Q2); experiment: Reversal of aging-like punctate accumulations of EmGFP-mPDE11A4 in HT-22 hippocampal cells; type: cell-based; conditions: HT-22 cells overexpressing EmGFP-mPDE11A4
Procedure: In vivo, expression of PDE11A4 increases in the hippocampus across the lifespan in humans and rodents, resulting in age-related punctate accumulations of PDE11A4 protein in “ghost axons.” These age-related PDE11A4 accumulations were mimicked by overexpressing mouse PDE11A4 in mouse HT-22 hippocampal cells. FIGS. 31A-31B is an image of HT-22 cells overexpressing EmGFP-mPDE11A4 treated with the vehicle DMSO (FIG. 30A) or 1 uM 25b (FIG. 30B).
See FIGS. 35A and 35B, which show images of HT-22 cells overexpressing EmGFP-mPDE11A4 treated with the vehicle DMSO (35A) or 1 uM 25b (35B).

[1] = Metabolic stability in human liver microsomes; type: in vitro ADME
Procedure: (§1) Metabolic stability: Samples at 37° C. in the presence of human or mouse liver microsomes and NADPH according to standard methods. Aliquots are removed at 5 time points, quenched and analyzed (LCMS/MS and MS/MS as needed) for remaining test compound, along with a positive control. Microsomal protein content is adjusted to give consistent results. Data are reported as half-life and clearance. Assay acceptance criteria is 20% for all standards and 25% for the LLOQ.

CYP2D6 = CYP2D6 (Homo sapiens, UniProt P10635); experiment: CYP2D6 inhibition (fluorescent substrate); type: in vitro ADME; conditions: Example 4 Table 1
Procedure: (§2) CYP inhibition: Compounds are assessed for their ability to inhibit the three major human cytochrome P450 enzymes, 3A4, 2D6 and 2C9. Expressed enzymes are used to minimize non-specific binding and membrane partitioning issues. The 3A4 assay uses testosterone as a substrate and is analyzed by LC/MS/MS on a Waters TQ instrument using positive or negative electrospray ionization. The 2D6 and 2C9 assays use fluorescent substrates and are analyzed on an Envision Plate Reader.

CYP3A4 = CYP3A4 (Homo sapiens, UniProt P08684); experiment: CYP3A4 inhibition (testosterone substrate); type: in vitro ADME; conditions: Example 4 Table 1
Procedure: as §2

MDCK cell monolayers = experiment: MDCK / MDCK-MDR1 permeability and efflux; type: in vitro ADME; conditions: Example 4 Table 1
Procedure: MDCK permeability: MDCK cell monolayers (Absorption Systems, Malvern, PA) are grown to confluence on collagen-coated microporous membranes in 12-well assay plates. Assay buffer consists of Hanks' balanced salt solution containing 10 mM HEPES and 15 mM glucose at pH—7.4. The buffer in the receiver chamber also contains 1% bovine serum albumin. Compounds are tested at a final concentration of 5 μM in the assay buffer. Cell monolayers are dosed on the apical side (A-B) or basolateral side (B-A) and incubated at 37° C. with 5% CO2 in a humidified incubator. Samples are taken from the donor and receiver chambers at 120 minutes. Each determination is performed in duplicate. The flux of Lucifer yellow is also measured post-experimentally for each monolayer to ensure no damage is inflicted to the monolayer during flux period. Samples are assayed on a Waters TQ LC/MS/MS using positive or negative electrospray ionization.

[2] = Metabolic stability in mouse liver microsomes; type: in vitro ADME
Procedure: as §1

[3] = Kinetic aqueous solubility, pH 7.4; type: physicochemical; conditions: aqueous buffer, PBS, Example 4 Table 1
Procedure: The mixture is agitated at 25° C. for 1 hour, filtered and evaluated by UV and/or LCMSMS analysis. Data are reported as mg/mL and μM concentration.

CYP2C9 = CYP2C9 (Homo sapiens, UniProt P11712); experiment: CYP2C9 inhibition (fluorescent substrate); type: in vitro ADME; conditions: Example 4 Table 1
Procedure: as §2

T1 sequence (Q9HCR9 whole entry): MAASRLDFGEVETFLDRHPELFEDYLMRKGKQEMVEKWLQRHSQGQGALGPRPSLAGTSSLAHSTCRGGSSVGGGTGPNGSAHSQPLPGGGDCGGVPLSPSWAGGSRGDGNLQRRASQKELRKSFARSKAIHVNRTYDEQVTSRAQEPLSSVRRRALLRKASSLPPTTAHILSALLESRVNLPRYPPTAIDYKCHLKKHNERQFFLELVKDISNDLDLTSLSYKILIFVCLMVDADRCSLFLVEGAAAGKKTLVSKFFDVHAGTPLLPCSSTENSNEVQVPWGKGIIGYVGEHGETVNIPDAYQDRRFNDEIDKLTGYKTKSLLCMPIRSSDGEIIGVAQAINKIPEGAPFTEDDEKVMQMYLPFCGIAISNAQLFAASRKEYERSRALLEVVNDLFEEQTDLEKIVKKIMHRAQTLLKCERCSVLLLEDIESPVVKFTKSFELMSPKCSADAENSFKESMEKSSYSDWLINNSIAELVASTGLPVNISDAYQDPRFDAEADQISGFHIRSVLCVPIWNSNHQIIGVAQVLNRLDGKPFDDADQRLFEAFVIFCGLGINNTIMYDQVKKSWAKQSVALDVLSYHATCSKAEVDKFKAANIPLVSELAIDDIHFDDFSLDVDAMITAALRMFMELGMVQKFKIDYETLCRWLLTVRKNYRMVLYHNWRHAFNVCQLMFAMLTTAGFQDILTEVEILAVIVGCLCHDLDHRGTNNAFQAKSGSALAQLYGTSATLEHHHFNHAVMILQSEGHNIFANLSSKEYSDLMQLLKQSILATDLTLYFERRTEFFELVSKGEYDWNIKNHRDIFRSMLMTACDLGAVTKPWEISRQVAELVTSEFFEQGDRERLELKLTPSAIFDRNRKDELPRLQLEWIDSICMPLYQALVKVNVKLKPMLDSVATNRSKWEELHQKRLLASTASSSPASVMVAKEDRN
Chain of mPDE11A4 (P0C1Q2 whole entry): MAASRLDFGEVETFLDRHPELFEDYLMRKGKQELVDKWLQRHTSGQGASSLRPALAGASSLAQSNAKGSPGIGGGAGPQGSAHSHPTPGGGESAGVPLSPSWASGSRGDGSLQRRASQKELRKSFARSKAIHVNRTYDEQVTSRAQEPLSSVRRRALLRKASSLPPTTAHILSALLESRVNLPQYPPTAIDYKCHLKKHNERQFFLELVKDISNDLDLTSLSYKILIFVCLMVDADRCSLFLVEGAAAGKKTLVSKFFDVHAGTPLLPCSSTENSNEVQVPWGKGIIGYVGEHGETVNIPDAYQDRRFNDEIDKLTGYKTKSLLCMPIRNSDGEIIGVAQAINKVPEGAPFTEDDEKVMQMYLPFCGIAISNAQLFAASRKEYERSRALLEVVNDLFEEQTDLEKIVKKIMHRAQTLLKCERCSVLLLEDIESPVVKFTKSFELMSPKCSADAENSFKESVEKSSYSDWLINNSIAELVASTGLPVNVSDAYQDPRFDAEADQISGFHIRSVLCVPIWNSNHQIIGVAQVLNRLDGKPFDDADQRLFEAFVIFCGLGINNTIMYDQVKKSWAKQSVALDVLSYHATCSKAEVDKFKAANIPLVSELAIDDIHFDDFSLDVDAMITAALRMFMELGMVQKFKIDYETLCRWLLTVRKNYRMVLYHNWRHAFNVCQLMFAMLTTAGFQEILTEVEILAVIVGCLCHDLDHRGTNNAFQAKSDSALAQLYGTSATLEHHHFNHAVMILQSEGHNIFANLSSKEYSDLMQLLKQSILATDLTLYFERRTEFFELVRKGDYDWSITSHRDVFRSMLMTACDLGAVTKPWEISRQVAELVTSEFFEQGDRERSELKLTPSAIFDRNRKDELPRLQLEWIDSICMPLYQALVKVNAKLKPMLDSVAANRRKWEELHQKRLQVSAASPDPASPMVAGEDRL
Chain of CYP2D6 (P10635 whole entry): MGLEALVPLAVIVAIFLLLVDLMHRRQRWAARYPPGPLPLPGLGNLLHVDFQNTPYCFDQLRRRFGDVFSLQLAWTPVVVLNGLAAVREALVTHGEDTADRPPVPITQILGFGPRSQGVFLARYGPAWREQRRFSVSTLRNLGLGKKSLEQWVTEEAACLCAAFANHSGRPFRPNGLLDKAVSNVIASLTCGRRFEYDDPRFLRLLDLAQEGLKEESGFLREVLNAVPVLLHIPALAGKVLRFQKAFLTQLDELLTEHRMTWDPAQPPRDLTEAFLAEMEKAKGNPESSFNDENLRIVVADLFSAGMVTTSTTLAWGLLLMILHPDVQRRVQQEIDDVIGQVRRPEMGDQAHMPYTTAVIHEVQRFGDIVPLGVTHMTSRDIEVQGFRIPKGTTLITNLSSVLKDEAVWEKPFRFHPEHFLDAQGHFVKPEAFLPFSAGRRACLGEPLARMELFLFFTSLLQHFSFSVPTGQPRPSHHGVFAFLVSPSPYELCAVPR
Chain of CYP2C9 (P11712 whole entry): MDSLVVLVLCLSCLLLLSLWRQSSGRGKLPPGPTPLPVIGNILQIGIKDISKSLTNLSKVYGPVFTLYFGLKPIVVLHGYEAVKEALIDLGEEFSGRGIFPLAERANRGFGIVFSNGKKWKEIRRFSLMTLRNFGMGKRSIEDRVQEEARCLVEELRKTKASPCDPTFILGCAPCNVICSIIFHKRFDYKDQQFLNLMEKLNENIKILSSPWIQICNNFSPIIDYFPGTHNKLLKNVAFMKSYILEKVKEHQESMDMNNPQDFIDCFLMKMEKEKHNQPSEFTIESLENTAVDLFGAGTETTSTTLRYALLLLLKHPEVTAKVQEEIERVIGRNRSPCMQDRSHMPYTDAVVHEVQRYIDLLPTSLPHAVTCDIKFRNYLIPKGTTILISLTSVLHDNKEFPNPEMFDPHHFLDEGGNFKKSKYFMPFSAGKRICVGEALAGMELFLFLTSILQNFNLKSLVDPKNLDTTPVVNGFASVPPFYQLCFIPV
Chain of CYP3A4 (P08684 whole entry): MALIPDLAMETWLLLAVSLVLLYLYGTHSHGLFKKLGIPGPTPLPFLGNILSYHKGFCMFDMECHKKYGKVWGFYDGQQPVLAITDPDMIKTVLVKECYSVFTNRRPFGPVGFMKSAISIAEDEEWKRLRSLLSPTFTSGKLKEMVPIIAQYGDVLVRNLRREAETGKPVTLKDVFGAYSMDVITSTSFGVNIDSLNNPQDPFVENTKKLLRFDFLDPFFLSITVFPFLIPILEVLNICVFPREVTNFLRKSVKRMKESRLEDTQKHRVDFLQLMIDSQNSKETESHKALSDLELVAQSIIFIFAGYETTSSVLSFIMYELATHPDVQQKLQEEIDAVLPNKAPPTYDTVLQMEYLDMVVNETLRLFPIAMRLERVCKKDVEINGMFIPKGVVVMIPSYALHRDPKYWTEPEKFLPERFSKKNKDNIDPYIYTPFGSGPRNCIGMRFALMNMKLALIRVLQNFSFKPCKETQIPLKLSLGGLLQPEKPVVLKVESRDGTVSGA

microsomal CLint ([1]; Example 4 Table 1, read-out: Human Liver Microsome Clint): > 690 µL/min/mg | half-life ([1]; Example 4 Table 1, read-out: Human Liver Microsome Stability t½): < 2 min | IC50 (CYP2D6): > 10000 nM | IC50 (CYP3A4): 3000 nM | MDCK1 A:B (MDCK cell monolayers): 0.78 | microsomal CLint ([2]; Example 4 Table 1, read-out: Mouse Liver Microsome Clint): > 690 µL/min/mg | half-life ([2]; Example 4 Table 1, read-out: Mouse Liver Microsome Stability t½): < 2 min | solubility [3]: 54 µM (≈ 21.1 µg/mL) | IC50 (CYP2C9): 4900 nM
Compound: CCN(CC)C(=O)c1cc(-c2cccs2)nc2c1c(C)nn2-c1ccccc1 [Compound 3001]

IC50 (PDE11A4): 70 nM
Compound: CCn1nccc1-c1cc(-c2nnc(C)o2)c2cnn(-c3ccccc3)c2n1 [Compound 1007]

Further lines, the compound ahead of its results:

Compound: CCn1nccc1-c1cc(-c2nnc(C)s2)c2cnn(-c3ccccc3)c2n1 [Compound 1005]
IC50 (PDE11A4): 170 nM

Compound: CCCSc1nc2c(c(=O)n1-c1ccccc1)SCC2 [BC11-38]
reversal of aging-like accumulations of mPDE11A4 (mPDE11A4): able to reverse these aging-like accumulations of mPDE11A4

Compound: CN1CC(=O)N2[C@H](c3ccc4c(c3)OCO4)c3[nH]c4ccccc4c3C[C@@H]2C1=O [Tadalafil, tadalafil]
reversal of aging-like accumulations of mPDE11A4 (mPDE11A4): able to reverse these aging-like accumulations of mPDE11A4

Compound: CCn1nccc1-c1cc(-c2ncc(C)o2)c2cnn(-c3ccccc3)c2n1 [Compound 1003]
IC50 (PDE11A4): 140 nM

Compound: CCn1nccc1-c1cc(-c2ncc(C)s2)c2cnn(-c3ccccc3)c2n1 [Compound 1001]
inhibition at 0.5 µM (PDE11A4; @500 nM): 62%
